# Experimental data: the supplement of paper PMC10307832
# What was measured:
# Experiment in all cases: relative viability (nuclei count vs DMSO), 5 days (fraction); higher = more cells survive
# Ibrutinib + Luminespib = compound: C=CC(=O)N1CCC[C@@H](n2nc(-c3ccc(Oc4ccccc4)cc3)c3c(N)ncnc32)C1 [Ibrutinib] + CCNC(=O)c1noc(-c2cc(C(C)C)c(O)cc2O)c1-c1ccc(CN2CCOCC2)cc1 [Luminespib] (partner 0.01 µM)
# Outline: (§1)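 A single step with final 0.05% Triton X-100, 1% formaldehyde and 1 ug/ml Hoechst fixed the cells and stained nuclei 5 days after treatment. Lung cancer cell lines in 1536-well plates had been treated by pin tool the day after seeding with one drug alone or a fixed anchor-drug dose plus five library-drug doses (not always all listed) in √10 steps, and nuclei were counted on 4× images. Relative viability is the ratio of nuclei in treated wells to nuclei in vehicle wells, taken as the median of duplicate plates.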
# Ibrutinib + Lapatinib = compound: C=CC(=O)N1CCC[C@@H](n2nc(-c3ccc(Oc4ccccc4)cc3)c3c(N)ncnc32)C1 [Ibrutinib] + CS(=O)(=O)CCNCc1ccc(-c2ccc3ncnc(Nc4ccc(OCc5cccc(F)c5)c(Cl)c4)c3c2)o1 [Lapatinib] (partner 2 µM)
# Outline: as §1
# BMX-IN-1 + Tozasertib = compound: C=CC(=O)Nc1cc(-n2c(=O)ccc3cnc4ccc(-c5ccc(NS(C)(=O)=O)cc5)cc4c32)ccc1C [BMX-IN-1] + Cc1cc(Nc2cc(N3CCN(C)CC3)nc(Sc3ccc(NC(=O)C4CC4)cc3)n2)n[nH]1 [Tozasertib] (partner 0.1 µM)
# Outline: as §1
# PAC-1 + Vorinostat = compound: C=CCc1cccc(/C=N/NC(=O)CN2CCN(Cc3ccccc3)CC2)c1O [PAC-1] + O=C(CCCCCCC(=O)Nc1ccccc1)NO [Vorinostat] (partner 1 µM)
# Outline: as §1
cell line,measurement,setting,value
SK-MES-1,relative viability,Ibrutinib + Luminespib; first compound 0.005 µM,0.619
same,relative viability,Ibrutinib + Luminespib; first compound 0.01581 µM,0.66
same,relative viability,Ibrutinib + Luminespib; first compound 0.05 µM,0.77
same,relative viability,Ibrutinib + Luminespib; first compound 0.1581 µM,0.842
same,relative viability,Ibrutinib + Luminespib; first compound 0.5 µM,0.443
same,relative viability,Ibrutinib + Lapatinib; first compound 0.005 µM,0.506
same,relative viability,Ibrutinib + Lapatinib; first compound 0.01581 µM,0.456
same,relative viability,Ibrutinib + Lapatinib; first compound 0.05 µM,0.461
same,relative viability,Ibrutinib + Lapatinib; first compound 0.1581 µM,0.446
same,relative viability,Ibrutinib + Lapatinib; first compound 0.5 µM,0.441
same,relative viability,BMX-IN-1 + Tozasertib; first compound 0.02 µM,1.12
same,relative viability,BMX-IN-1 + Tozasertib; first compound 0.2 µM,1.15
same,relative viability,BMX-IN-1 + Tozasertib; first compound 0.6325 µM,1.07
same,relative viability,BMX-IN-1 + Tozasertib; first compound 2 µM,0.884
same,relative viability,PAC-1 + Vorinostat; first compound 0.02 µM,1.18
same,relative viability,PAC-1 + Vorinostat; first compound 0.06325 µM,1.09
same,relative viability,PAC-1 + Vorinostat; first compound 0.2 µM,1.02
same,relative viability,PAC-1 + Vorinostat; first compound 2 µM,1.17
